3 molecules from publication PMC4674756, “NMR structure and function of Helicoverpa armigera sterol carrier protein-2, an important insecticidal target from the cotton bollworm” (Scientific Reports, 2015) can be followed below.

One assay has as its target HaSCP-2 (Helicoverpa armigera, UniProt K7NSY9). Kind of assay: biochemical.
The subject of assay [1] is Helicoverpa armigera larvae. The assay is described as follows: Cholesterol levels in fat body of larvae treated with SCP-2 inhibitors. It is filed as in vivo. To be noted: fat body dissected at 5th instar. The procedure:
To investigate the effects of SCPI suppression on cholesterol absorption and accumulation in the fat body, in vivo experiments were conducted. The inhibitory effects of SCPIs on cholesterol uptake were tested at the early stages of 3rd and 4th instar larvae. H. armigera larvae were treated with SCPI-1 and mangostin. Because the fat body of insects is the main tissues of cholesterol storage, the fat bodies of the treated larvae were dissected at 5th instar and the concentration of cholesterol in the fat body was measured. […] Similarly, for the mangostin treatment group, there was a 2-fold decrease in the cholesterol levels (p = 0.05) (Fig. 9B 3rd) when the treatment started at 3rd instar stadium. […]
Figure 9 The levels of cholesterol in Helicoverpa armigera larvae treated by SCP-2 inhibitors. The cholesterol levels in the fat body of Helicoverpa armigera larvae which were treated with two inhibitors (AeSCPI-1 and mangostin) were determined. […] The concentration of cholesterol and total protein from each sample were measured. […] Larvae were treated and samples were measured in the same way as AeSCPI-1. […]
The H.armigera larvae were reared according to previous methods. […] Because the fat body of insects is the main tissue of cholesterol storage, the fat bodies of the treated larvae were dissected at 5th instar and the concentration of cholesterol in the fat body was measured. […]

The target in assay [2] is truncated HaSCP-2 (trHaSCP-2) (Helicoverpa armigera, UniProt K7NSY9). The assay is described as follows: NBD-cholesterol binding assay, truncated (wild type) HaSCP-2. To be noted: NBD-cholesterol 0.25 μM, protein 25 nM to 15 μM, one site binding non-linear regression, R^2 = 0.99. As to the method:
(§1) NBD-cholesterol binding assays were performed to investigate the biological function of HaSCP-2 in this study. Both the recombinant full length and trHaSCP-2 were examined for NBD-cholesterol binding (Kd). Glutathione S-transferase (GST) was used as a negative control as before. The final concentration of NBD-cholesterol was kept constant at 0.25 μM and the concentration of full length or truncated HaSCP-2 was tested in a range from 25 nM to 15 μM. The increasing concentration of full length or truncated HaSCP-2 led to the increase in the fluorescence emission value of NBD-cholesterol. […] The binding curves were analyzed by using the one site binding non-linear regression model adopted in the similar studies. […] It is quite likely that the N-terminal and C-terminal residues that were deleted may not be necessary for the ligand binding activity of HaSCP-2, as shown that no significant differences in binding affinity between the truncated HaSCP-2 and full length HaSCP-2.
(§2) HaSCP-2 binding activity to cholesterol was determined by using NBD-cholesterol binding assays. […] Then, the samples were applied to measure the fluorescence signals using a fluorescence microplate reader (GeminiXPS, Molecular Devices). Fluorescence was excited at 485 nm and the emission was measured at 530 nm. […]

The next assay addresses HaSCP-2 Q131A (Helicoverpa armigera, UniProt K7NSY9, Q521A). It is filed as binding. The note with it: mutant Q131A; P vs WT 0.034. The source says: (§3) In order to further confirm the key residues of HaSCP-2 that are involved in the ligand binding, based on the HaSCP-2 structure and docking simulation results we selected several predicted amino acid residues as shown in Table 3 (cholesterol and β-sitosterol) to perform single site mutation experiments to investigate the mechanism of ligand binding in HaSCP-2.
(§4) Single site amino acid mutations in the pGEX-KG/trHaSCP-2 were introduced using the QuikChange II Site-Directed Mutagenesis kit (Stratagene, La Jolla, CA). The Y51, F53, F89, I91, F110, I117 and Q131 sites of HaSCP-2 were selected to perform mutation.
(§5) HaSCP-2 binding activity to cholesterol was determined by using NBD-cholesterol binding assays. In truncation experiments, deduced HaSCP-2 and truncated HaSCP-2 were used for NBD-cholesterol binding assay; while as in mutation experiment, truncated HaSCP-2 (defined as wild type HaSCP-2) and mutated HaSCP-2 were assayed. HaSCP-2 was diluted in 10 mM KHPO4 buffer (pH 7.4) to a serial of varied concentrations […], respectively.

Another assay deals with HaSCP-2 I117M (Helicoverpa armigera, UniProt K7NSY9, I507M). It is filed as binding. The note with it: mutant I117M; P vs WT 0.043.
Text: as §3, §4, §5

The target in the next assay is HaSCP-2 F89A (Helicoverpa armigera, UniProt K7NSY9, F479A). The class given is binding. The note with it: mutant F89A; P vs WT 0.038.
Text: as §3, §4, §5

The next assay deals with HaSCP-2 Y51A (Helicoverpa armigera, UniProt K7NSY9, Y441A). It is filed as binding. To be noted: mutant Y51A; P vs WT 0.023.
Text: as §3, §4, §5

In the next assay the target is HaSCP-2 F53A (Helicoverpa armigera, UniProt K7NSY9, F443A). The class given is binding. The note with it: mutant F53A; P vs WT 0.031.
Text: as §3, §4, §5

The target in the next assay is HaSCP-2 F110W (Helicoverpa armigera, UniProt K7NSY9, F500W). It is filed as binding. The note with it: mutant F110W; P vs WT 0.019.
Text: as §3, §4, §5

For the next assay, the target named is HaSCP-2 F53W (Helicoverpa armigera, UniProt K7NSY9, F443W). It is filed as binding. To be noted: mutant F53W; P vs WT 0.026.
Text: as §3, §4, §5

A further assay has as its target full length HaSCP-2 (Helicoverpa armigera, UniProt K7NSY9). The assay is described as follows: NBD-cholesterol binding assay, full length (deduced) HaSCP-2. To be noted: NBD-cholesterol 0.25 μM, protein 25 nM to 15 μM, one site binding non-linear regression, R^2 = 0.99. The procedure:
as §1, §2

Structures are written as SMILES.

HaSCP-2, sequence (K7NSY9 entry or part of it): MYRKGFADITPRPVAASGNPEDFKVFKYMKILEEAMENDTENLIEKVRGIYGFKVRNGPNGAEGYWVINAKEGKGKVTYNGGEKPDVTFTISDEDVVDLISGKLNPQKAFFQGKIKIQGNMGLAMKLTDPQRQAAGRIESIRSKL
HaSCP-2 I117M, sequence (K7NSY9 entry or part of it I507M): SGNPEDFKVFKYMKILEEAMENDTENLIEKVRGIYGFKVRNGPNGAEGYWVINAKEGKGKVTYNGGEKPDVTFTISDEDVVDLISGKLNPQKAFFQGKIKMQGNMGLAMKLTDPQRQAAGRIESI
HaSCP-2 Q131A, sequence (K7NSY9 entry or part of it Q521A): as the sequence (K7NSY9 entry or part of it I507M) above, with M101I, Q115A counted along it
HaSCP-2 F53A, sequence (K7NSY9 entry or part of it F443A): as the sequence (K7NSY9 entry or part of it I507M) above, with F37A, M101I counted along it
HaSCP-2 F53W, sequence (K7NSY9 entry or part of it F443W): as the sequence (K7NSY9 entry or part of it I507M) above, with F37W, M101I counted along it
HaSCP-2 F110W, sequence (K7NSY9 entry or part of it F500W): as the sequence (K7NSY9 entry or part of it I507M) above, with F94W, M101I counted along it
HaSCP-2 F89A, sequence (K7NSY9 entry or part of it F479A): as the sequence (K7NSY9 entry or part of it I507M) above, with F73A, M101I counted along it
full length HaSCP-2, sequence (K7NSY9 entry or part of it): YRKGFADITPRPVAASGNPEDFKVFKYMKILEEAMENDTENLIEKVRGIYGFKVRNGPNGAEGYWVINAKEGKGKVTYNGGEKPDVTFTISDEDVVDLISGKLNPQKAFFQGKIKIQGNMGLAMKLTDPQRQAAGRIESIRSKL
HaSCP-2 Y51A, sequence (K7NSY9 entry or part of it Y441A): as the sequence (K7NSY9 entry or part of it I507M) above, with Y35A, M101I counted along it
truncated HaSCP-2 (trHaSCP-2), sequence (K7NSY9 entry or part of it): as the sequence (K7NSY9 entry or part of it I507M) above, with M101I counted along it

Regarding `Br.CC(=O)Nc1ccc(Nc2nc(-c3ccc(Cl)c(Cl)c3)cs2)cc1` [AeSCPI-1, N-(4-{[4-(3,4-dichlorophenyl)-1,3-thiazol-2-yl]amino}phenyl) acetamide hydrobromide], the midpoint of the response on HaSCP-2, the EC50, lay at 760 nM. Moreover, the “cholesterol levels in the fat body vs control group” value in [1] (larvae treated at 3rd instar stage via diet, p = 0.023) was “significantly lower”.

As for `C[C@H](CNc1ccc([N+](=O)[O-])c2nonc12)[C@H]1CC[C@H]2[C@@H]3CC=C4C[C@@H](O)CC[C@]4(C)[C@H]3CC[C@]12C` [NBD-cholesterol], the Kd in assay [2] came to 2450 nM; on HaSCP-2 Q131A, 3770 nM; on HaSCP-2 I117M, 1800 nM; on HaSCP-2 F89A, 3270 nM; on HaSCP-2 Y51A it was 2650 nM; on HaSCP-2 F53A, 3070 nM. Also, the Kd is 3240 nM at HaSCP-2 F110W, 3410 nM on HaSCP-2 F53W and 2800 nM at full length HaSCP-2.

`COc1c(O)cc2oc3cc(O)c(CC=C(C)C)c(O)c3c(=O)c2c1CC=C(C)C` [α-mangostin, 1,3,6-trihydroxy-7-methoxy-2,8-bis(3-methylbut-2-enyl)-9H-xanthen-9-one] returned an EC50 at HaSCP-2 of 730 nM. For the same molecule, the “decrease in the cholesterol levels in the fat body” value in assay [1] (treatment started at 3rd instar stadium via diet, p = 0.05) is reported as 2 fold.
